The source made the active and inactive calls. The calls are words filed in the database; no cut-off is given here.
Tests used:
[1] = test system: Staphylococcus aureus; test: Antibacterial activity against Staphylococcus aureus ATCC29213 infected in mouse model assessed as normalization of skin cell morphology at 5 to 10 mg/kg, sc measured after 24 hrs by H and E staining based analysis; format: functional, organism-based; conditions: dose 5-10 mg/kg
[2] = test system: Staphylococcus aureus; test: Antibacterial activity against Staphylococcus aureus ATCC29213 in plasma pretreated plasma with compound for 6 hrs followed by bacterial infection into plasma; format: functional, organism-based
[3] = test system: Enterococcus faecalis; test: Antibacterial activity against Enterococcus faecalis ATCC29212 assessed as cell surface wrinkling at 8 times MIC by SEM analysis; format: functional, organism-based
[4] = Toxicity in KM mouse assessed as animal survival upto 40 mg/kg, ip measured for 24 hrs; format: organism-based; conditions: in vivo
[5] = test system: Staphylococcus aureus; test: Inhibition of antibiotic-resistance in Staphylococcus aureus ATCC29213 at 0.5 times of MIC incubated for 20 days; format: functional; conditions: time 20.0 day
[6] = test system: Escherichia coli; test: Bactericidal activity against Escherichia coli ATCC25922 at MIC incubated for 12 hrs by time-kill assay relative to control; format: functional
[7] = test system: Staphylococcus aureus; test: Antibacterial activity against Staphylococcus aureus ATCC29213 infected in mouse model assessed as uniform smooth skin at 5 to 10 mg/kg, sc measured after 24 hrs; format: functional, organism-based; conditions: dose 5-10 mg/kg
[8] = test system: Staphylococcus aureus; test: Antibacterial activity against Staphylococcus aureus ATCC29213 infected in mouse model assessed as reduction in inflammatory factors in skin at 5 to 10 mg/kg, sc measured after 24 hrs by H and E staining based analysis; format: functional, organism-based; conditions: dose 5-10 mg/kg
[9] = test system: Escherichia coli; test: Bactericidal activity against Escherichia coli ATCC25922 assessed as inhibition of bacterial regrowth at 8 times MIC incubated for 24 hrs by time-kill assay; format: functional, organism-based
[10] = test system: Escherichia coli; test: Antibacterial activity against Escherichia coli ATCC25922 assessed as cell membrane damage incubated for 8 mins by SYTOX Green uptake assay; format: functional, organism-based
[11] = test system: Staphylococcus aureus; test: Antibacterial activity against methicillin-resistant Staphylococcus aureus 21-5 by CLSI based serial dilution method; format: functional
[12] = test system: Staphylococcus aureus; test: Antibacterial activity against Staphylococcus aureus ATCC29213 by CLSI based serial dilution method; format: functional
[13] = Toxicity in KM mouse assessed as damage in liver upto 40 mg/kg, ip measured for 24 hrs by H and E staining based analysis; format: organism-based; conditions: in vivo
[14] = Toxicity in KM mouse assessed as damage in kidney upto 40 mg/kg, ip measured for 24 hrs by H and E staining based analysis; format: organism-based; conditions: in vivo
[15] = test system: Staphylococcus aureus; test: Antibacterial activity against Staphylococcus aureus ATCC29213 infected in mouse model assessed as bacterial concentration at 10 mg/kg, sc measured after 24 hrs (reference value: 10^10.13 CFU/g); format: functional
[16] = Toxicity in KM mouse assessed as damage in heart upto 40 mg/kg, ip measured for 24 hrs by H and E staining based analysis; format: organism-based; conditions: in vivo
[17] = Selectivity index, ratio of HC50 against rabbit RBC for to MIC for Escherichia coli ATCC25922; format: toxicity; conditions: rabbit red blood cells, pooled result: one value given for 6 cell lines, strains, targets or settings, read-out: Selectivity Index
[18] = Toxicity in KM mouse assessed as histopathological abnormality in liver upto 40 mg/kg, ip measured for 24 hrs by H and E staining based analysis; format: organism-based; conditions: in vivo
[19] = Toxicity in KM mouse assessed as histopathological abnormality in kidney upto 40 mg/kg, ip measured for 24 hrs by H and E staining based analysis; format: organism-based; conditions: in vivo
[20] = test system: Pseudomonas aeruginosa; test: Antibacterial activity against Pseudomonas aeruginosa ATCC27853 by CLSI based serial dilution method; format: functional
[21] = test system: Staphylococcus aureus; test: Antibacterial activity against Staphylococcus aureus ATCC29213 assessed as leakage of cell contents at 8 times MIC by SEM analysis; format: functional, organism-based
[22] = Toxicity in KM mouse assessed as damage in lung upto 40 mg/kg, ip measured for 24 hrs by H and E staining based analysis; format: organism-based; conditions: in vivo
[23] = test system: Staphylococcus aureus; test: Antibacterial activity against Staphylococcus aureus ATCC29213 assessed as cell surface disruption at 8 times MIC by SEM analysis; format: functional, organism-based
[24] = Hemolytic activity against rabbit RBC incubated for 1 hr by absorbance based assay; format: toxicity, cell-based, Oryctolagus cuniculus, Erythrocyte; conditions: rabbit red blood cells (erythrocytes)
[25] = Selectivity ratio of cytotoxicity against HUVEC cells for to MIC for Staphylococcus aureus ATCC29213; format: toxicity, cell-based; conditions: human
[26] = test system: Pseudomonas aeruginosa; test: Anti-biofilm activity against Pseudomonas aeruginosa ATCC27853 assessed as biofilm formation rate at 8 times MIC incubated for 48 hrs by crystal violet staining based analysis relative to control; format: functional
[27] = test system: Staphylococcus aureus; test: Bactericidal activity against Staphylococcus aureus ATCC29213 assessed as log reduction in bacterial growth at 8 times MIC incubated for 24 hrs by time-kill assay; format: functional
[28] = Toxicity in KM mouse assessed as damage in spleen upto 40 mg/kg, ip measured for 24 hrs by H and E staining based analysis; format: organism-based; conditions: in vivo
[29] = test system: Staphylococcus aureus; test: Antibacterial activity against Staphylococcus aureus ATCC29213 infected in mouse model assessed as bacterial load reduction in abscesses at 5 mg/kg, sc measured after 24 hrs relative to control; format: functional; design: scale not given: the % may be the effect or the level left
[30] = test system: Escherichia coli; test: Bactericidal activity against Escherichia coli ATCC25922 at MIC incubated for 24 hrs by time-kill assay relative to control; format: functional
[31] = test system: Staphylococcus aureus; test: Antibacterial activity against Staphylococcus aureus ATCC29213 infected in mouse model assessed as bacterial load reduction in abscesses at 10 mg/kg, sc measured after 24 hrs relative to control; format: functional; design: scale not given: the % may be the effect or the level left
[32] = test system: Escherichia coli; test: Bactericidal activity against Escherichia coli ATCC25922 incubated upto 24 hrs by time-kill assay; format: functional, organism-based
[33] = test system: Escherichia coli; test: Antibacterial activity against Escherichia coli ATCC25922 in plasma pretreated plasma with compound for 6 hrs followed by bacterial infection into plasma; format: functional, organism-based
[34] = test system: Escherichia coli; test: Bactericidal activity against Escherichia coli ATCC25922 assessed as log reduction in bacterial growth at MIC incubated for 12 hrs by time-kill assay; format: functional
[35] = test system: Enterococcus faecalis; test: Antibacterial activity against Enterococcus faecalis ATCC29212 assessed as cell surface disruption at 8 times MIC by SEM analysis; format: functional, organism-based
[36] = Toxicity in KM mouse assessed as normal condition upto 40 mg/kg, ip measured for 24 hrs; format: organism-based; conditions: in vivo
[37] = test system: Staphylococcus aureus; test: Antibacterial activity against Staphylococcus aureus ATCC25923 upto 32 ug/ml incubated for 16 to 18 hrs in presence of phosphatidylglycerol; format: functional, organism-based; conditions: dose <= 32.0 µg/ml, time 16-18 hrs
[38] = test system: Staphylococcus aureus; test: Antibacterial activity against Staphylococcus aureus ATCC29213 infected in mouse model assessed as bacterial load in abscesses at 10 mg/kg, sc measured after 24 hrs; format: functional
[39] = test system: Staphylococcus aureus; test: Antibacterial activity against Staphylococcus aureus ATCC25923 upto 32 ug/ml incubated for 16 to 18 hrs in presence of cardiolipin; format: functional, organism-based; conditions: dose <= 32.0 µg/ml, time 16-18 hrs
[40] = Cytotoxicity against HUVEC cells assessed as cell viability at 32 ug/ml incubated for 24 hrs by CCK8 assay relative to control; format: toxicity, cell-based; conditions: human, at 32 µg/mL, read-out: Activity
[41] = test system: Staphylococcus aureus; test: Antibacterial activity against Staphylococcus aureus ATCC29213 infected in mouse model assessed as reduction in abscesses size at 5 to 10 mg/kg, sc measured after 24 hrs; format: functional, organism-based; conditions: dose 5-10 mg/kg
[42] = test system: Staphylococcus aureus; test: Antibacterial activity against Staphylococcus aureus ATCC29213 infected in mouse model assessed as bacterial load in abscesses at 5 mg/kg, sc measured after 24 hrs; format: functional

CCCCCCCNC(=O)C[N+](C)(C)CCCCOc1cc(C)ccc1C(C)C.[Br-]
Activity [1]: Active | Activity [2]: Active | Activity [3]: Active | Activity [4]: Non-Toxic | inhibition [5]: Active | Activity [6]: 99.99% | Activity [7]: Active | Activity [8]: Active | inhibition [9]: Active | Activity [10]: Dose-Dependent Effect | MIC [11]: 4 µg/mL | MIC [12]: 0.5 µg/mL | Activity [13]: Non-Toxic | Activity [14]: Non-Toxic | Activity [15]: ~1 10^7.67CFU/g | Activity [16]: Non-Toxic | selectivity ratio [17]: 59 | Activity [18]: Non-Toxic | Activity [19]: Non-Toxic | MIC [20]: 8 µg/mL | Activity [21]: Active | Activity [22]: Non-Toxic | Activity [23]: Active | HC50 at 1 h [24]: 472 µg/mL | selectivity ratio [25]: 64 | Activity [26]: 22.3% | Activity [27]: >3 log10CFU/ml | Activity [28]: Non-Toxic | Activity [29]: 99.27% | Activity [30]: 100% | Activity [31]: 99.65% | Activity [32]: Dose-Dependent Effect | Activity [33]: Active | Activity [34]: >4 log10CFU/ml | Activity [35]: Active | Activity [36]: Non-Toxic | Activity [37]: inactive | Activity [38]: 2.46 log10CFU/g | Activity [39]: inactive | viability at 24 h, 32 ug/ml [40]: 68.7% | Activity [41]: Active | Activity [42]: 2.14 log10CFU/g

Reference: ChEMBL document CHEMBL5608215, “Development of amphipathic derivatives of thymol and carvacrol as potent broad-spectrum antibacterial agents” (Eur J Med Chem, 2024)
